In patent US12655150B2 (Cedilla Therapeutics, Inc., priority 2021, dated 2026) one finds GI50 data, which are given here for 30 compounds.

For this assay, the system named is NCI-H226. The assay is described as follows: 72H TEAD Proliferation Assay (Cell Titer Glo 2.0). Type of assay: cell-based. The settings on record: Homo sapiens, NCI-H226, 72 h, CTG 2.0, cell line not given (NCI-H226 responsive, NCI-H28 non-responsive). The essentials: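 Growth read-out is ATP luminescence (CellTiter-Glo 2.0) after 72 h compound exposure, corrected for no-CTG background and day-0 values, with GI50 from nonlinear regression. Sensitive line NCI-H226 (NF2-deficient); non-responsive NCI-H28 (NF2 wild type) distinguishes TEAD-driven from nonspecific growth inhibition.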
For orientation: In ATP-based viability assays light output follows the ATP content of the culture.

A word on the GI50: it is the concentration that inhibits growth by half. Low values mean greater sensitivity of the cells, high ones lower sensitivity of the cells. For the compound `O=C(O)c1ccc2c(C3CCOCC3)cc(-c3ccc(C(F)(F)F)cc3)nc2c1` [I-390, 4-(tetrahydro-2H-pyran-4-yl)-2-(4-(trifluoromethyl)phenyl)quinoline-7-carboxylic acid], the GI50 lay in the range of 5 to 10 µM.

`O=C(O)c1ccc2c(N3CCCCC3)cc(-c3ccc(C(F)(F)F)cc3)nc2c1` [I-391, 4-(piperidin-1-yl)-2-(4-(trifluoromethyl)phenyl)quinoline-7-carboxylic acid]: the GI50 fell in the range of 1 to 5 µM. In the case of `CN(C)c1cc(-c2ccc(C(F)(F)F)cc2)nc2cc(C(=O)O)ccc12` [I-392, 4-(dimethylamino)-2-(4-(trifluoromethyl)phenyl)quinoline-7-carboxylic acid], the GI50 lay in the range of 1 to 5 µM. With `CCOc1cc(-c2ccc(C(F)(F)F)cc2)nc2cc(C(=O)O)ccc12` [I-393, 4-ethoxy-2-(4-(trifluoromethyl)phenyl)quinoline-7-carboxylic acid], the GI50 is at most 1 µM. Consider `CC(C)Oc1cc(-c2ccc(C(F)(F)F)cc2)nc2cc(C(=O)O)ccc12` [I-394, 4-isopropoxy-2-(4-(trifluoromethyl)phenyl)quinoline-7-carboxylic acid], for which the GI50 is at most 1 µM. `O=C(O)c1ccc2c(OC3CC3)cc(-c3ccc(C(F)(F)F)cc3)nc2c1` [I-395, 4-cyclopropoxy-2-(4-(trifluoromethyl)phenyl)quinoline-7-carboxylic acid]: the GI50 is at most 1 µM. Compound `CC(=O)c1cc(-c2ccc(C(F)(F)F)cc2)nc2cc(C(=O)O)ccc12` [I-396, 4-acetyl-2-(4-(trifluoromethyl)phenyl)quinoline-7-carboxylic acid] showed a GI50 of 1 to 5 µM.

The compound `CC[C@H](CO)NC(=O)c1ccc2c(OC)cc(-c3c(Cl)cc(C(F)(F)F)cc3Cl)nc2c1` [I-398, (R)-2-(2,6-dichloro-4-(trifluoromethyl)phenyl)-N-(1-hydroxybutan-2-yl)-4-methoxyquinoline-7-carboxamide] came in with a GI50 of 1 to 5 µM. For `CC[C@H](CO)NC(=O)c1ccc2c(C3CC3)cc(-c3ccc(C(F)(F)F)cc3)nc2c1` [I-399, (R)-4-cyclopropyl-N-(1-hydroxybutan-2-yl)-2-(4-(trifluoromethyl)phenyl)quinoline-7-carboxamide] the value was at most 1 µM; for `C#Cc1cc(-c2ccc(C(F)(F)F)cc2)nc2cc(C(=O)N[C@H](CC)CO)ccc12` [I-400, (R)-4-ethynyl-N-(1-hydroxybutan-2-yl)-2-(4-(trifluoromethyl)phenyl)quinoline-7-carboxamide], at most 1 µM.

`N#Cc1cc(-c2ccc(C(F)(F)F)cc2)nc2cc(C(=O)O)ccc12` [I-401, 4-cyano-2-(4-(trifluoromethyl)phenyl)quinoline-7-carboxylic acid] gave a GI50 of 5 to 10 µM. `C#Cc1cc(-c2ccc(C(F)(F)F)cc2)nc2cc(C(=O)O)ccc12` [I-402, 4-ethynyl-2-(4-(trifluoromethyl)phenyl)quinoline-7-carboxylic acid] showed a GI50 of at most 1 µM. For the compound `O=C(O)c1ccc2ccc(-c3ccc(C(F)(F)F)cc3)nc2c1` [I-403, 2-(4-(trifluoromethyl)phenyl)quinoline-7-carboxylic acid], the GI50 lay in the range of 1 to 5 µM.

In turn, `Cc1cc2c(-c3ccc(C(F)(F)F)cc3)nc3cc(C(=O)O)ccc3n2c1` [I-404, 2-Methyl-4-(4-(trifluoromethyl)phenyl)pyrrolo[1,2-a]quinoxaline-7-carboxylic acid] gave a GI50 of at most 1 µM.

In the case of `Cc1cc2c(-c3ccc(C(F)(F)F)cn3)nc3cc(C(=O)O)ccc3n2c1` [I-405, 2-Methyl-4-(5-(trifluoromethyl)pyridin-2-yl)pyrrolo[1,2-a]quinoxaline-7-carboxylic acid], the GI50 was at most 1 µM. As to `Cc1cc2c(N3CCC(C(F)(F)F)CC3)nc3cc(C(=O)O)ccc3n2c1` [I-406, 2-Methyl-4-(4-(trifluoromethyl)piperidin-1-yl)pyrrolo[1,2-a]quinoxaline-7-carboxylic acid], the GI50 was at most 1 µM. Take `C=CC(=O)NCc1nc(-c2ccc(C(F)(F)F)cc2)cn2ccnc12` [I-408, N-((6-(4-(trifluoromethyl)phenyl)imidazo[1,2-a]pyrazin-8-yl)methyl)acrylamide]: the GI50 was at most 1 µM.

`C=CC(=O)NCc1cn2c(F)ccc2c(-c2ccc(C(C)(C)C)cc2)n1` [I-409, N-((1-(4-(tert-butyl)phenyl)-6-fluoropyrrolo[1,2-a]pyrazin-3-yl)methyl)acrylamide] registered a GI50 of at most 1 µM. As for `C=CC(=O)NCc1nc2ncccn2c1-c1ccc(C(F)(F)F)cc1` [I-410, N-((3-(4-(trifluoromethyl)phenyl)imidazo[1,2-a]pyrimidin-2-yl)methyl)acrylamide], the figure is at most 1 µM; as for `CC(C)(C)c1ccc(-c2nc3cc(C(=O)O)ccc3n3cc(SC(F)(F)F)cc23)cc1` [I-411, 4-(4-(tert-Butyl)phenyl)-2-((trifluoromethyl)thio)pyrrolo[1,2-a]quinoxaline-7-carboxylic acid], 1 to 5 µM; as for `C=CC(=O)NC1CCCc2ccc(-c3ccc(C(F)(F)F)cc3)nc21` (stereo not drawn) [I-412, N-(2-(4-(trifluoromethyl)phenyl)-5,6,7,8-tetrahydroquinolin-8-yl)acrylamide], 5 to 10 µM. For `COc1cc(-c2ccc(C(F)(F)F)cc2)nc2cc(-c3nnc(C)[nH]3)ccc12` [I-413, 4-methoxy-7-(5-methyl-4H-1,2,4-triazol-3-yl)-2-(4-(trifluoromethyl)phenyl)quinolone] the value was 5 to 10 µM; for `COc1cc(-c2ccc(C(F)(F)F)cc2)nc2cc(S(C)(=O)=O)ccc12` [I-415, 4-methoxy-7-(methylsulfonyl)-2-(4-(trifluoromethyl)phenyl)quinoline], at most 1 µM. For `COc1cc(-c2ccc(C(F)(F)F)cc2)nc2cc(S(N)(=O)=O)ccc12` [I-416, 4-Methoxy-2-(4-(trifluoromethyl)phenyl)quinoline-7-sulfonamide] the value was 1 to 5 µM. Turning to `CCNS(=O)(=O)c1ccc2c(OC)cc(-c3ccc(C(F)(F)F)cc3)nc2c1` [I-417, N-ethyl-4-methoxy-2-(4-(trifluoromethyl)phenyl)quinoline-7-sulfonamide], the 50% growth inhibitory concentration (GI50) is at most 1 µM.

The compound `COc1cc(-c2ccc(C(F)(F)F)cc2)nc2cc(-c3ccccn3)ccc12` [I-418, 4-Methoxy-7-(pyridin-2-yl)-2-(4-(trifluoromethyl)phenyl)quinoline] gave a GI50 of 5 to 10 µM. Compound `COc1cc(-c2ccc(C(F)(F)F)cc2)nc2cc(C3(O)COC3)ccc12` [I-419, 3-(4-methoxy-2-(4-(trifluoromethyl)phenyl)quinolin-7-yl)oxetan-3-ol] showed a GI50 of 1 to 5 µM. For `O=C(O)c1cc2nc(-c3ccc(C(F)(F)F)cc3)c3ccccc3n2c1` [I-421, 5-(4-(trifluoromethyl)phenyl)pyrrolo[1,2-a]quinazoline-2-carboxylic acid] the value was 1 to 5 µM; for `Cc1nc2ccc(C(=O)O)cc2nc1-c1ccc(C(F)(F)F)cc1` [I-422, 2-methyl-3-(4-(trifluoromethyl)phenyl)quinoxaline-6-carboxylic acid], 5 to 10 µM; for `CC[C@H](CO)NC(=O)c1ccc2nc(C)c(-c3ccc(C(F)(F)F)cc3)nc2c1` [I-423, (R)—N-(1-hydroxybutan-2-yl)-2-methyl-3-(4-(trifluoromethyl)phenyl)quinoxaline-6-carboxamide], 5 to 10 µM.
